Source: ChEMBL document CHEMBL4385629, “Evaluation of quinoxaline compounds as ligands of a site adjacent to S2 (AS2) of cruzain” (Bioorg Med Chem Lett, 2019)
Active and inactive are the calls of the source. The calls are words filed in the database; no cut-off is given here.

Assays:
[1] = target: Cruzipain (Trypanosoma cruzi) (UniProt P25779); test: Activation of Trypanosoma cruzi cruzain assessed as increase in enzyme activity using Z-FR-AMC as substrate at 0.1 mM incubated for 15 mins in dark and measured at 5 mins interval for 60 mins by fluorescence based method relative to control
[2] = target: Cruzipain (Trypanosoma cruzi) (UniProt P25779); test: Inhibition of Trypanosoma cruzi cruzain assessed as reduction in 7-amino-4-methylcoumarin production using Z-FR-AMC as substrate and measured up to 60 mins by fluorescence based method

Sequence of Cruzipain (Trypanosoma cruzi) (P25779 123-467 limits assumed): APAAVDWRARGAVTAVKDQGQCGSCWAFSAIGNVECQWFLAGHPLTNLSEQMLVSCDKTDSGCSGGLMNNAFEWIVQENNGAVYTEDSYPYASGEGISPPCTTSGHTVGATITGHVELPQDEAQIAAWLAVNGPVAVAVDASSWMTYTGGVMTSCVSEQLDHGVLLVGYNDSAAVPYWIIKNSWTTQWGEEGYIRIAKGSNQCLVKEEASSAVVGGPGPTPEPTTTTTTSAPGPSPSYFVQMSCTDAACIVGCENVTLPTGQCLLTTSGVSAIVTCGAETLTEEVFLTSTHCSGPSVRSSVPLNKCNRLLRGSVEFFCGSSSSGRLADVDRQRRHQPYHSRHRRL

| fold change (FC) [1] | inhibition [2] | Compound |
| --- | --- | --- |
| 3 | inactive | Oc1nc2ccccc2nc1O |
| 10 | inactive | O=C(O)CCc1nc2ccccc2[nH]c1=O |
| 15 | inactive | O=C1CNc2ccccc2N1 |
